{"source": "PubChem BioAssay (NCI)", "test_in_all_cases": "NCI tumour cell line growth inhibition, 48 h", "key": {"786-0 renal": {"tested_on": "786-0 renal"}, "A498 renal": {"tested_on": "A498 renal"}, "A549 NSCLC": {"tested_on": "A549 NSCLC"}, "ACHN renal": {"tested_on": "ACHN renal"}, "BT-549 breast": {"tested_on": "BT-549 breast"}, "CAKI-1 renal": {"tested_on": "CAKI-1 renal"}, "CCRF-CEM leukemia": {"tested_on": "CCRF-CEM leukemia"}, "COLO 205 colon": {"tested_on": "COLO 205 colon"}, "DU-145 prostate": {"tested_on": "DU-145 prostate"}, "EKVX NSCLC": {"tested_on": "EKVX NSCLC"}, "HCC-2998 colon": {"tested_on": "HCC-2998 colon"}, "HCT-116 colon": {"tested_on": "HCT-116 colon"}, "HCT-15 colon": {"tested_on": "HCT-15 colon"}, "HL-60(TB) leukemia": {"tested_on": "HL-60(TB) leukemia"}, "HOP-62 NSCLC": {"tested_on": "HOP-62 NSCLC"}, "HOP-92 NSCLC": {"tested_on": "HOP-92 NSCLC"}, "HS 578T breast": {"tested_on": "HS 578T breast"}, "HT29 colon": {"tested_on": "HT29 colon"}, "IGROV1 ovarian": {"tested_on": "IGROV1 ovarian"}, "K-562 leukemia": {"tested_on": "K-562 leukemia"}, "KM12 colon": {"tested_on": "KM12 colon"}, "LOX IMVI melanoma": {"tested_on": "LOX IMVI melanoma"}, "MALME-3M melanoma": {"tested_on": "MALME-3M melanoma"}, "MCF7 breast": {"tested_on": "MCF7 breast"}, "MDA-MB-231 breast": {"tested_on": "MDA-MB-231 breast"}, "MDA-MB-435": {"tested_on": "MDA-MB-435"}, "MOLT-4 leukemia": {"tested_on": "MOLT-4 leukemia"}, "NCI-H226 lung": {"tested_on": "NCI-H226 lung"}, "NCI-H23 lung": {"tested_on": "NCI-H23 lung"}}, "note": "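48-hour exposure; five concentrations; linearly interpolated endpoints. GI50 is the concentration that inhibits growth by half. TGI marks complete inhibition of growth.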", "data": [{"smiles": "CC1=C2C(=C[C@@](C)(COC(=O)c3ccc(S(=O)(=O)F)cc3)[C@@H]2O)C(=O)[C@](C)(O)C12CC2", "values": [{"measurement": "GI50", "setting": "786-0 renal", "result": 2.15, "unit": "µM"}, {"measurement": "TGI", "setting": "786-0 renal", "result": 7.93, "unit": "µM"}, {"measurement": "GI50", "setting": "A498 renal", "result": 2.27, "unit": "µM"}, {"measurement": "TGI", "setting": "A498 renal", "result": 5.62, "unit": "µM"}, {"measurement": "GI50", "setting": "A549 NSCLC", "result": 2.87, "unit": "µM"}, {"measurement": "TGI", "setting": "A549 NSCLC", "result": "> 26.1", "unit": "µM"}, {"measurement": "GI50", "setting": "ACHN renal", "result": 0.541, "unit": "µM"}, {"measurement": "TGI", "setting": "ACHN renal", "result": 1.73, "unit": "µM"}, {"measurement": "GI50", "setting": "BT-549 breast", "result": 1.22, "unit": "µM"}, {"measurement": "TGI", "setting": "BT-549 breast", "result": 2.84, "unit": "µM"}, {"measurement": "GI50", "setting": "CAKI-1 renal", "result": 0.631, "unit": "µM"}, {"measurement": "TGI", "setting": "CAKI-1 renal", "result": 2.45, "unit": "µM"}, {"measurement": "GI50", "setting": "CCRF-CEM leukemia", "result": 3.21, "unit": "µM"}, {"measurement": "TGI", "setting": "CCRF-CEM leukemia", "result": "> 28", "unit": "µM"}, {"measurement": "GI50", "setting": "COLO 205 colon", "result": 0.951, "unit": "µM"}, {"measurement": "TGI", "setting": "COLO 205 colon", "result": 2.72, "unit": "µM"}, {"measurement": "GI50", "setting": "DU-145 prostate", "result": 0.522, "unit": "µM"}, {"measurement": "TGI", "setting": "DU-145 prostate", "result": 3.04, "unit": "µM"}, {"measurement": "GI50", "setting": "EKVX NSCLC", "result": 2.42, "unit": "µM"}, {"measurement": "TGI", "setting": "EKVX NSCLC", "result": 6.47, "unit": "µM"}, {"measurement": "GI50", "setting": "HCC-2998 colon", "result": 0.945, "unit": "µM"}, {"measurement": "TGI", "setting": "HCC-2998 colon", "result": 2.71, "unit": "µM"}, {"measurement": "GI50", "setting": "HCT-116 colon", "result": 0.587, "unit": "µM"}, {"measurement": "TGI", "setting": "HCT-116 colon", "result": 2.5, "unit": "µM"}, {"measurement": "GI50", "setting": "HCT-15 colon", "result": 0.424, "unit": "µM"}, {"measurement": "TGI", "setting": "HCT-15 colon", "result": 2.24, "unit": "µM"}, {"measurement": "GI50", "setting": "HL-60(TB) leukemia", "result": 0.566, "unit": "µM"}, {"measurement": "TGI", "setting": "HL-60(TB) leukemia", "result": 5.91, "unit": "µM"}, {"measurement": "GI50", "setting": "HOP-62 NSCLC", "result": 2.55, "unit": "µM"}, {"measurement": "TGI", "setting": "HOP-62 NSCLC", "result": 13.8, "unit": "µM"}, {"measurement": "GI50", "setting": "HOP-92 NSCLC", "result": 2.17, "unit": "µM"}, {"measurement": "TGI", "setting": "HOP-92 NSCLC", "result": 6.01, "unit": "µM"}, {"measurement": "GI50", "setting": "HS 578T breast", "result": 2.42, "unit": "µM"}, {"measurement": "TGI", "setting": "HS 578T breast", "result": 9.57, "unit": "µM"}, {"measurement": "GI50", "setting": "HT29 colon", "result": 0.498, "unit": "µM"}, {"measurement": "TGI", "setting": "HT29 colon", "result": 2.67, "unit": "µM"}, {"measurement": "GI50", "setting": "IGROV1 ovarian", "result": 0.941, "unit": "µM"}, {"measurement": "TGI", "setting": "IGROV1 ovarian", "result": 5.06, "unit": "µM"}, {"measurement": "GI50", "setting": "K-562 leukemia", "result": 3.41, "unit": "µM"}, {"measurement": "TGI", "setting": "K-562 leukemia", "result": "> 100", "unit": "µM"}, {"measurement": "GI50", "setting": "KM12 colon", "result": 4.28, "unit": "µM"}, {"measurement": "TGI", "setting": "KM12 colon", "result": 24.9, "unit": "µM"}, {"measurement": "GI50", "setting": "LOX IMVI melanoma", "result": 0.588, "unit": "µM"}, {"measurement": "TGI", "setting": "LOX IMVI melanoma", "result": 2.22, "unit": "µM"}, {"measurement": "GI50", "setting": "MALME-3M melanoma", "result": 0.785, "unit": "µM"}, {"measurement": "TGI", "setting": "MALME-3M melanoma", "result": 2.33, "unit": "µM"}, {"measurement": "GI50", "setting": "MCF7 breast", "result": 0.596, "unit": "µM"}, {"measurement": "TGI", "setting": "MCF7 breast", "result": 9.31, "unit": "µM"}, {"measurement": "GI50", "setting": "MDA-MB-231 breast", "result": 1.35, "unit": "µM"}, {"measurement": "TGI", "setting": "MDA-MB-231 breast", "result": 6.62, "unit": "µM"}, {"measurement": "GI50", "setting": "MDA-MB-435", "result": 1.17, "unit": "µM"}, {"measurement": "TGI", "setting": "MDA-MB-435", "result": 2.98, "unit": "µM"}, {"measurement": "GI50", "setting": "MOLT-4 leukemia", "result": 2.02, "unit": "µM"}, {"measurement": "TGI", "setting": "MOLT-4 leukemia", "result": "> 25.8", "unit": "µM"}, {"measurement": "GI50", "setting": "NCI-H226 lung", "result": 2.3, "unit": "µM"}, {"measurement": "TGI", "setting": "NCI-H226 lung", "result": 9.14, "unit": "µM"}, {"measurement": "GI50", "setting": "NCI-H23 lung", "result": 1, "unit": "µM"}]}]}
